{
  "source": "paper PMC5835976",
  "about": "“Synthesis, gallium labelling and characterization of P04087, a functionalized phosphatidylserine-binding peptide” (EJNMMI Radiopharmacy and Chemistry, 2017)",
  "key": {"[1]": {"experiment": "Peptide stability in Hank's medium with 10% foetal calf serum", "assay_type": "in vitro ADME", "details": "37 °C; for Stability result: Hanks + 10% FCS, 2 h incubation, in darkness, triplicate, sampled at 0, 1 h, 2 h, TCA precipitation, LC/ES/MS; for Stability in Hanks media supplied or not with foetal calf serum: Hanks media with or without FCS, two hours", "protocol": "A 100 μL solutions of R824 (PGDLSR), R825 (DAHSFS) and R826 (LIKKPF) in Hank’s medium and 10% FCS (foetal calf serum) were prepared and incubated (in triplicate) for 2 h at 37 °C and in complete darkness. At 0, 1 h and 2 h, 100 μL were sampled from each tube; 200 μL of 0.6 M trichloroacetic acid were added. The mixtures were then centrifuged at 20,000 g for 10 min at 4 °C. One microliter of each supernatant was then analyzed by LC/ES/MS."}, "[2]": {"assay_type": "in vitro ADME, human", "protocol": "The metabolic stability was checked in human serum at 37 °C in presence and in absence of 1,10 phenanthroline monohydrate, a well-known metalloprotease inhibitor (Wijayanti et al. [2006]) at appropriate periods of time (0, 15, 30, 60 min). In two different tubes containing 200 μL of human serum plasma previously incubated at 37 °C was added 40 μL of ^67Ga-P04087 labelling solution. 4 μL of 1 mg/mL of 1,10 phenanthroline monohydrate in ethanol was added only in one of the two tubes. At 0, 15, 30 and 60 min, 20 μL aliquots were collected and proteins were precipitated with 200 μL of methanol. Samples were then filtered with 0.2 μm Whatman filter (13 mm) and the methanol was then evaporated with a stream of nitrogen. The resulting dry residue was dissolved in 200 μL water and then analyzed by C18-radio-HPLC using the equipment mentioned above."}, "[3]": {"tested_on": "phosphatidylserine in valve vegetations", "experiment": "In vivo binding to PS in rat model of infective endocarditis (SPECT/CT, autoradiography)", "details": "intravenous injection, intense signal in the bladder"}, "[4]": {"details": "compared with Ga-P04087; no reference given for the value; cited from earlier work", "description": "Affinities of cold-labelled peptide (Ga-P04087) and the peptide of reference (R824) for phosphatidylserine were evaluated by enzyme-linked immunosorbent assay. A competitive binding assay procedure was performed: A 96-well plate (MICROLON plaque 200, med. Binding, F-bottom, GREINER) was coated with 200 μL/well of phosphatidylserine (PS) (Avanti Polar Lipids) (dissolved in ethanol (SIGMA ALDRICH) for a final concentration of 100 μg/mL)."}, "vegetations": {"tested_on": "vegetations", "details": "vegetations of experimental endocarditis; ref Rouzet et al. [2008]; cited from earlier work", "excerpt": "Otherwise, the presence of ^67Ga-P04087 uptake on autoradiography in contrast to the rapid degradation observed in vitro without the metalloprotease inhibitor, point out the discrepancies that could occur between in vitro and in vivo degradation even when low tracer amounts are used in vitro in order to avoid saturation of enzymes (García-Garayoa et al. [2001]). These positive autoradiography results extend the findings of histology experimentations on the binding of the agent to PS. However, comparatively to radiolabelled Annexin A5, the contrast was not sufficient to provide a detectable sig ..."}},
  "note": "Where no end group is shown, it is not given here.",
  "data": [
    {"compound": "DAHSFS [Peptide R825]", "values": [
      {"measurement": "Stability result", "setting": "[1]", "value": "Stable"},
      {"measurement": "Stability in Hanks media supplied or not with foetal calf serum", "setting": "[1]", "value": "stable"}
    ]},
    {"compound": "PGDLSR [Peptide R824]", "values": [
      {"measurement": "Stability result", "setting": "[1]", "value": "Stable"},
      {"measurement": "Stability in Hanks media supplied or not with foetal calf serum", "setting": "[1]", "value": "stable"}
    ]},
    {"compound": "CC(C)C[C@H](NC(=O)[C@H](CC(=O)O)NC(=O)CNC(=O)[C@@H]1CCCN1C(=O)CCNC(=O)CCC(C(=O)O)N1CCN(CC(=O)O)CCN(CC(=O)O)CC1)C(=O)N[C@@H](CO)C(=O)N[C@@H](CCCNC(=N)N)C(=O)O", "note": "(some centres unmarked) [Peptide 67Ga-P04087, metal not drawn]", "values": [
      {"measurement": "Radiochemical purity in human serum with 1,10 phenanthroline monohydrate", "setting": "[2]", "value": 100, "unit": "%"},
      {"measurement": "Renal elimination on SPECT/CT", "setting": "[3]", "value": "rapid renal elimination"}
    ]},
    {"compound": "LIKKPF [Peptide R826]", "values": [
      {"measurement": "Stability result", "setting": "[1]", "value": "Total degradation 1 h after the start of incubation"},
      {"measurement": "Stability in Hanks media supplied or not with foetal calf serum", "setting": "[1]", "value": "quickly degraded"}
    ]},
    {"compound": "99mTc-AnnexinV: technetium 99m-labelled Annexin V, protein imaging agent targeting PS", "values": [
      {"measurement": "affinity to PS", "setting": "[4]", "value": "6*10^−9 M"},
      {"measurement": "uptake ratio for autoradiography", "setting": "vegetations", "value": 2},
      {"measurement": "uptake ratio for in vivo acquisitions", "setting": "vegetations", "value": 1.3}
    ]}
  ]
}
